Patent US6455516B1, “Method and compounds for use in the treatment of steroid induced states of the central nervous system” (priority 1998, dated 2002)
Entries after “also recorded” stand apart in the source; their conditions may differ.

Key:
[1] = system: slices from hippocampal CA1 region; experiment: Hippocampus slice in vitro model: induced population spike (POPSP) over the synapse in area CA1; type: cell-based, rat; conditions: for Blocking of the effect of 3alpha-hydroxy-5alpha-pregnan-20-one on the signal/POPSP / Blocking of the effect of 3alpha-hydroxy-5beta-pregnan-20-one on the signal/POPSP: given simultaneously, equimolar dose in the nM range; for Effect on the signal transmitted over the synapse / amplitude of the POPSP: steroid alone
Source text: In another preliminary study, the hippocampus slice model in the female rat of the luteal phase was used. This corresponds to the phase in humans when most of CNS effects are noticed in women with epilepsy and premenstrual syndrome.
In the hippocampus slice in vitro model the effect of steroids on an electrical signal over the synapse in the area CA1 was investigated. The stimulation is on one side of the synapse and a measurement of the response is made on the other side. A small droplet containing the steroid can be placed on top of the synapse and thus influence the synaptic transmission. Secondly a steroid can also be dissolved in the nutrient fluid perfusing the hippocampous slice. The steroid in the perfusion will influence the whole slice including the synapse under investigation.

[2] = Steroids tested by the inventors as agonist, blocker or antagonist to the sedative steroids (method not given)
Sprague-Dawley rats [3] = experiment: EEG-threshold method for deep anaesthesia ("silent second"), continuous intravenous infusion; type: in vivo, rat; conditions: for Intercept of regression line (anaesthetic steroid dosage needed for SS at zero 3beta-hydroxy-5alpha-pregnan-20-one): FIG. 1 / FIG. 2; for Optimal dose rate (gives the lowest threshold dose): rats
Experimental: The present invention is based on experiments in vivo, performed to confirm the blocking effect of 3beta-hydroxy-5alpha-pregnan-20-one on 3alpha-hydroxy-5alpha-pregnan-20-one in a preliminary study. 3alpha-hydroxy-5alpha-pregnan-20-one dissolved in 20% cyclodextrin was given to male Sprague-Dawley rats in an i.v. infusion dose rate of close to 3.0 mg/kg/min. This is the optimal dose rate for 3alpha-hydroxy-5alpha-pregnan-20-one. 3alpha-hydroxy-5alpha-pregnan-20-one and 3beta-hydroxy-5alpha-pregnan-20-one were dissolved, 50/50%, in water solution containing cyclodextrin. The control solution only contained 3alpha-hydroxy-5alpha-pregnan-20-one. The amount of 3alpha-hydroxy-5alpha-pregnan-20-one needed to obtain silent second, the anaesthesia criteria, was 21% higher with the combined solution compared to 3alpha-hydroxy-5alpha-pregnan-20-one alone, showing an interaction between 3alpha-hydroxy-5alpha-pregnan-20-one and 3beta-hydroxy-5alpha-pregnan-20-one in vivo. There was no overlap between the effect of the combined solution and control solution of 3alpha-hydroxy-5alpha-pregnan-20-one.
In further studies, performed after the priority date, the present invention was tested in in vivo experiments in which the blocking effect of 3beta-hydroxy-5alpha-pregnan-20-one was assessed by investigating the dosage of 3alpha-hydroxy-5alpha-pregnan-20-one and 3alpha-hydroxy-5beta-pregnan-20-one needed to induce a deep anaesthesia in the presence of increasing amounts of 3beta-hydroxy-5alpha-pregnan-20-one. An EEG-threshold method for deep anaesthesia was used. The method is developed to determine the sensitivity in the central nervous system (CNS) to the depressant drugs, mainly intravenous anaesthetic agents. Drugs are administered into the tail vein by continuous intravenous infusion while an Electro-Encephalo-Gram (EEG) is recorded. The infusion was immediately stopped and infusion time recorded, when the first burst of EEG suppression for one second or more is noted, the threshold criterion for a deep anaethesia, the “silent second” (SS). The appearance of SS is considered as a deeper anaesthesia state than the loss of righting reflex. The threshold dose (mg/kg) is calculated by multiplying the time to obtain SS with the dose rate (mg/kg/min). The threshold doses of the tested drug indicates its relative anaesthetic potency. The threshold doses are also related to CNS excitability. An increase or decrease in CNS excitability can be measured by a change in threshold doses of anesthetics. The dose rates which give the lowest threshold dose is considered as the optimal dose rate. The optimal dose rate and anaesthetic threshold dosage for 3alpha-hydroxy-5alpha-pregnan-20-one and […] at several times and the optimal dose rate is close to 3.0 mg/kg/min for both 3alpha-hydroxy-5alpha-pregnan-20-one and 3alpha-hydroxy-5beta-pregnan-20-one. The anaesthetic threshold dosage is for 3alpha-hydroxy-5alpha-pregnan-20-one between 6.5 to 8.0 mg/kg and for 3alpha-hydroxy-5beta-pregnan-20-one between 9 to 11 mg/kg depending on the age of the rats and the solvent used.
3alpha-hydroxy-5alpha-pregnan-20-one and […] dissolved in 20% cyclodextrin were given to Sprague-Dawley rats in an intravenous infusion at the optimal dose rate. 3beta-hydroxy-5alpha-pregnan-20-one was also dissolved in a 20% cyclodextrin solution and given simultaneously in a dosage 100%, 123% and 143% of the 3alpha-hydroxy-5alpha-pregnan-20-one dosage (n=11) and 70%, 100%, 123% and 143% of the 3alpha-hydroxy-5beta-pregnan-20-one dosage (n=16). […] The correlation between the dosage 3beta-hydroxy-5alpha-pregnan-20-one given and the dosage of 3alpha-hydroxy-5alpha-pregnan-20-one and 3alpha-hydroxy-5beta-pregnan-20-one needed to obtain the criterion of SS is highly significant (FIG. 1 and FIG. 2).

Sprague-Dawley rats [4] = conditions: a result found by several groups and described in earlier reports; cited from earlier work

Compound | Blocking of the effect of 3alpha-hydroxy-5alpha-pregnan-20-one on the signal/POPSP ([1]; local application) | Blocking of the effect of 3alpha-hydroxy-5beta-pregnan-20-one on the signal/POPSP ([1]; local application) | Effect as agonist, blocker or antagonist to the sedative steroids [2] | Effect on the signal transmitted over the synapse / amplitude of the POPSP ([1]; local application) | Intercept of regression line (anaesthetic steroid dosage needed for SS at zero 3beta-hydroxy-5alpha-pregnan-20-one) (Sprague-Dawley rats [3]) [mg/kg] | Optimal dose rate (gives the lowest threshold dose) (Sprague-Dawley rats [3]; i.v. infusion) [mg/kg/min] | further results
3beta-hydroxy-pregnenolone | no blocking effect | no blocking effect | no effect either as an agonist or blocker or antagonist |  |  |  | 
CC(=O)[C@H]1CC[C@H]2[C@@H]3CC[C@H]4C[C@H](O)CC[C@]4(C)[C@H]3CC[C@]12C [3alpha-hydroxy-5alpha-pregnan-20-one, reference compound] |  |  |  | inhibition of the signal transmitted over the synapse | 6.9 | ~3.0 | Reduction of the amplitude of the induced population spike ([1]; local application, FIG. 3): 45%
CC(=O)[C@H]1CC[C@H]2[C@@H]3CC[C@@H]4C[C@H](O)CC[C@]4(C)[C@H]3CC[C@]12C [3alpha-hydroxy-5beta-pregnan-20-one, reference compound] |  |  |  | inhibition of the signal transmitted over the synapse; also recorded: inhibits the amplitude of the POPSP | 9.1 | ~3.0 | 
CC(=O)[C@H]1CC[C@H]2[C@@H]3CC[C@H]4C[C@@H](O)CC[C@]4(C)[C@H]3CC[C@]12C [3beta-hydroxy-5alpha-pregnan-20-one] | can be blocked; also recorded: totally inhibited | can be blocked; also recorded: can inhibit the effect |  |  |  |  | Effect by itself on signal transmission over the synapse ([1]; alone, up to micromolar range, not different from vehicle): no effect on signal transmission; also recorded: no effect by itself; Blocking of the effect of 3alpha-hydroxy-5alpha-pregnan-20-one when perfused to the whole hippocampus slice ([1]; perfusion of whole slice): same blocking effect; Interaction with Muscimol (an agonist to GABA) on the GABA-A receptor ([1]; together with Muscimol, FIG. 5): does not interact with Muscimol; Correlation coefficient r: 3alpha-hydroxy-5alpha-pregnan-20-one dosage needed for SS vs 3beta-hydroxy-5alpha-pregnan-20-one dosage (Sprague-Dawley rats [3]; FIG. 1, p<0.001, df=9): 0.90; Slope of regression line: 3alpha-hydroxy-5alpha-pregnan-20-one dosage needed for SS vs 3beta-hydroxy-5alpha-pregnan-20-one dosage (Sprague-Dawley rats [3]; FIG. 1, slope p<0.001 different from 0): 0.43; Correlation coefficient r: 3alpha-hydroxy-5beta-pregnan-20-one dosage needed for SS vs 3beta-hydroxy-5alpha-pregnan-20-one dosage (Sprague-Dawley rats [3]; FIG. 2, P<0.001, df=14): 0.78; Slope of regression line: 3alpha-hydroxy-5beta-pregnan-20-one dosage needed for SS vs 3beta-hydroxy-5alpha-pregnan-20-one dosage (Sprague-Dawley rats [3]; FIG. 2, slope p<0.001 different from 0): 0.46; Effect on the anaesthetic effect of 3alpha-hydroxy-5beta-pregnan-20-one in vivo (Sprague-Dawley rats [3]; given simultaneously i.v. at 70%, 100%, 123% and 143% of the 3alpha-hydroxy-5beta-pregnan-20-one dosage, dose dependent): can block the effect; also recorded: decreased the anaesthetic potency; Effect on the anaesthetic/CNS depressing effect of 3alpha-hydroxy-5alpha-pregnan-20-one in vivo (Sprague-Dawley rats [3]; given simultaneously i.v. at 100%, 123% and 143% of the 3alpha-hydroxy-5alpha-pregnan-20-one dosage, dose dependent): can block the effect; also recorded: decreased the anaesthetic potency; Amount of 3alpha-hydroxy-5alpha-pregnan-20-one needed to obtain silent second, higher with combined solution compared to 3alpha-hydroxy-5alpha-pregnan-20-one alone (Sprague-Dawley rats [3]; preliminary study, 50/50% with 3alpha-hydroxy-5alpha-pregnan-20-one in cyclodextrin solution, i.v. infusion, male Sprague-Dawley rats): 21%; Effect by itself on CNS activities (Sprague-Dawley rats [4]): no effect on CNS activities
CC(=O)[C@H]1CC[C@H]2[C@@H]3CC[C@@H]4C[C@@H](O)CC[C@]4(C)[C@H]3CC[C@]12C [3beta-hydroxy-5beta-pregnan-20-one] | no blocking effect | no blocking effect | no effect either as a blocker or as an antagonist |  |  |  | 
CC(=O)C1CCC2C3CC=C4CC(OS(=O)(=O)O)CCC4(C)C3CCC12C (stereo not shown) [Pregnenolone sulphate] |  | could neither block |  |  |  |  | Own effect on the signal in high micromolar concentrations ([1]; high micromolar concentrations): excitatory
